Source: patent US20230348538A1, “METHOD FOR TREATMENT OF DRY EYE COMPRISNG APPLYING P55PIK INHIBITOR” (Wuhan Yicheng Biological Technology Co., Ltd., priority 2020, published 2023)
“Also recorded” adds a separate entry of the source.

Columns and labels:
[1] = test system: volunteers diagnosed with dry eye syndrome; test: Population experiment: volunteers with dry eye syndrome; format: in vivo, human; conditions: 0.1% eye drops, 1-2 drops
Description: Currently, volunteers have been recruited to test the dry eye therapeutic effect of the 0.1% TAT-N16 peptide eye drops disclosed by the disclosure.

[2] = test system: dry eye model induced by 0.2% benzalkonium chloride solution; test: Benzalkonium chloride dry eye model: corneal fluorescein sodium staining score; format: in vivo, C57BL/6 mice; conditions: for Corneal fluorescein staining scores (x ± s): total score of 16 points
Description: The healthy male C57BL/6 mice were kept in a controlled environment with a temperature of (25±1)° C., a relative humidity of (25±5)%, and light-dark cycles (9 AM-9 PM) with simulated dawn and dusk. Forty mice (80 eyes) were treated with 5 μL of 0.2% benzalkonium chloride solution twice a day (8:00 AM and 6:00 PM) for 14 days to induce dry eye symptoms, while the remaining ten mice (20 eyes) received no treatment and served as a baseline control. Modeling was carried out on the 15th day; and the dry eye rat models were screened based on tear film break-up time (BUT), fluorescein sodium staining of corneal, and Schirmer's test I for tear secretion. Fluorescein sodium staining was carried out to determine if there any epithelial damage in the corneal of mice; one drop of 1% fluorescein sodium solution was instilled into the conjunctival sac of the mouse eyes; after 1 minute, the corneal epithelial stained by fluorescein sodium was observed under the cobalt blue filter on the slit lamp. Scoring criteria: the cornea was divided into 4 quadrants; and a scoring system was used to assess the staining; each quadrant was given a score ranging from 0 to 4 points, with a total score of 16 points. A score of 0 indicated no staining; 1 point represented less than 30 punctate staining spots; 2 points represented more than 30 punctate staining spots but not diffuse; 3 points represented obviously diffuse staining but no patchy staining; 4 points represented patchy staining. […] Group A, the drug treatment group, was treated with the eye drops comprising 0.1% TAT-[…] peptide, four times a day; Group B, the solvent control group, was treated with eye drops without TAT-[…] peptide, four times a day; and Group C, the blank control group, received no treatment; on days 1, 4, and 7 after treatment, BUT, Schirmer's test I, and fluorescein sodium staining were performed; on the 7th day, the paraffin sections of the conjunctival fornix was stained by PAS stain; and the number of PAS-positive goblet cells was counted.

[3] = test system: dry eye model induced by 0.2% benzalkonium chloride solution; test: Benzalkonium chloride dry eye model: tear film break-up time (BUT); format: in vivo, C57BL/6 mice
Description: The healthy male C57BL/6 mice were kept in a controlled environment with a temperature of (25±1)° C., a relative humidity of (25±5)%, and light-dark cycles (9 AM-9 PM) with simulated dawn and dusk. Forty mice (80 eyes) were treated with 5 μL of 0.2% benzalkonium chloride solution twice a day (8:00 AM and 6:00 PM) for 14 days to induce dry eye symptoms, while the remaining ten mice (20 eyes) received no treatment and served as a baseline control. Modeling was carried out on the 15th day; and the dry eye rat models were screened based on tear film break-up time (BUT), fluorescein sodium staining of corneal, and Schirmer's test I for tear secretion. Tear film break-up time (BUT) was used to assess the tear film stability: 1 μL of 1% fluorescein sodium solution was instilled into the conjunctival sac of the mouse, and the mouse was held and blinked artificially three times; the upper and lower eyelids of the mouse were then separated; and the tear film was observed under cobalt blue filter on a slit lamp; the tear film break-up time was recorded as the number of seconds that elapse between the last blink and the appearance of the first dry spot in the tear film of the cornea; each eye was measured three times, and the average of the three measurements was recorded in seconds. […] Group A, the drug treatment group, was treated with the eye drops comprising 0.1% TAT-[…] peptide, four times a day; Group B, the solvent control group, was treated with eye drops without TAT-[…] peptide, four times a day; and Group C, the blank control group, received no treatment; on days 1, 4, and 7 after treatment, BUT, Schirmer's test I, and fluorescein sodium staining were performed; on the 7th day, the paraffin sections of the conjunctival fornix was stained by PAS stain; and the number of PAS-positive goblet cells was counted.

[4] = test system: rabbit model of dry eye (0.1% benzalkonium chloride); test: Rabbit model of dry eye: conjunctival impression cytology (CIC), goblet cell density; format: in vivo, New Zealand white rabbits; conditions: following medication; statistically significant; FIG. 5
Description: 1.2.1 Grouping: thirty New Zealand white rabbits were randomly divided into three groups, each comprising 10 rabbits: a blank control group, a solvent control group, and a drug treatment group.
1.2.2 Preparation of a rabbit model of dry eye: the right eye of each rabbit was used to establish a dry eye rabbit model by administering 0.1% benzalkonium chloride eye drops twice a day for 4 weeks. After 4 weeks, the dry eye rabbit model was evaluated, with the conjunctiva appearing dry, tear production being reduced, and Schirmer test values being less than 10 mm/5 min (compared to the control group, where all Schirmer test values were above 10 mm). […]
1.3.3 Conjunctival impression cytology (CIC) examination: CIC examination was performed on days 1, 4, and 7 after treatment; the nitrocellulose membranes were cut into two strips of 3.5 mm×3.5 mm each, soaked in distilled water for 4 h, and then dried; after surface anesthesia, the rough side of the two strips of the nitrocellulose membranes were placed on the nasal and temporal quadrants of the conjunctiva and pressed for 10 seconds to obtain surface epithelial cells; the nitrocellulose membranes were then fixed in 95% ethanol and stained with periodic acid-Schiff (PAS); the number of the goblet cells was counted under an optical microscope and graded according to the Nelson scoring system.

[5] = test system: rat model of dry eye induced by corneal epithelial injury; test: Rat model of dry eye induced by corneal epithelial injury: corneal epithelial injury score (sodium fluorescein, slit lamp); format: in vivo, SD rats
Description: Grouping and administration: the eighteen rats were then randomly divided into three groups, with 6 laboratory rats in each group (male and female in equal numbers); Group 1 was the blank control group and received no treatment; Group 2 was the solvent control group and was treated with solvent eye drops that contained a solvent but no TAT-N16 peptide; Group 3 was the drug treatment group and was treated with eye drops comprising 0.1% TAT-N16 peptide; the eye drops were administered four times a day (1 drop/time) for 7 days; the corneal epithelial injury was evaluated on days 0, 4 and 7 after treatment.
Detection method and scoring criteria: corneal staining was performed by injecting 1 drop pf sodium fluorescein into the conjunctival sac using the 5 mL sterile syringe with the […] needle; the corneal epithelium was observed under the blue light from the slit lamp after 5 minutes; and the scoring criteria were shown in Table 1.

[6] = single cases, three (case 4: three to five) times a day
[7] = 0 d (baseline), drug treatment group, 0.1% eye drops
[8] = 4 d, 0.1% eye drops four times a day
[9] = 7 d, 0.1% eye drops four times a day

“TAT-N16 peptide: cell-penetrating artificial peptide, sequence SEQ ID NO: 2, constructed by linking the peptide N16 to a TAT sequence; P55PIK inhibitor (YGRKKRRQRRRMMPYSTELIFYIEMDP)” was tested, and the “Dry eye symptoms within three days of use” value ([1]; single case, three times a day) was “significantly improved”, the “Conjunctival congestion after a week of use” value [1, 6] was “cleared up; also recorded: disappeared” and the “Dry eye symptoms after a week of use” value [1, 6] was “essentially disappeared; also recorded: mostly disappeared; also recorded: disappeared completely; also recorded: largely eliminated”. For the same substance, the “Dry eye symptoms on the first day of use” value ([1]; single cases, three times a day) was “improved significantly; also recorded: significantly relief”, the Corneal fluorescein staining scores (x ± s) [2, 7] was 8.29 ± 1.31 and the “Corneal fluorescein staining score compared with blank control group, model control group and solvent control group” value ([2]; 4th day of treatment) was “significantly lower”. The Corneal fluorescein staining scores (x ± s) [2, 8] was 4.12 ± 0.81, the Corneal fluorescein staining scores (x ± s) [2, 9] was 2.79 ± 1.25 and the “Corneal fluorescein staining score compared with blank control group, model control group and solvent control group” value ([2]; 7 days of continuous treatment, P<0.05) was “significantly lower”. The “Tear film break-up time (BUT) values (x ± s)” value [3, 7] was 3.49 ± 0.43 s, the “Tear film break-up time compared with blank control group, model control group and solvent control group” value ([3]; 4th day of treatment) was “significantly longer” and the “Tear film break-up time (BUT) values (x ± s)” value [3, 8] was 4.82 ± 0.57 s. For the same substance, the “Tear film break-up time (BUT) values (x ± s)” value [3, 9] was 5.99 ± 0.55 s, the “Tear film break-up time compared with blank control group, model control group and solvent control group” value ([3]; 7 days of continuous treatment, P=0.007) was “significantly longer” and the “Goblet cell density (CIC examination) compared to before medication” value [4] was “gradual increase”. The “Corneal epithelial injury score compared with blank control group or solvent control group” value ([5]; 4 days of treatment, P>0.05) was “no statistically significant difference”, the “Corneal epithelial injury score compared with blank control group or solvent control group” value ([5]; 7 days of treatment, P<0.05) was “significantly lower” and the “Corneal epithelial injury scores (x ± s, n = 6)” value (shortened to “Corneal epithelial injury scores”) ([5]; after 4 days of treatment, 0.1% eye drops four times a day) was 3.08 ± 1.43. The “Corneal epithelial injury scores” value ([5]; after 7 days of treatment, 0.1% eye drops four times a day) was 0.84 ± 0.96 and the “Corneal epithelial injury scores” value ([5]; before treatment (baseline), drug treatment group, 0.1% eye drops) was 4.81 ± 1.61.
